{
  "source": "patent US20230286934A1",
  "about": "“Use of Multi-Kinase Inhibitors to Treat RNA Virus Infections” (priority 2020, published 2023)",
  "key": {"SARS-CoV-2": {"test_system": "SARS-CoV-2", "assay": "microbe, parasite or virus in culture", "format": "cell-based", "details": "for IC50: read-out: IC50 of inhibition of the replication of SARS-CoV-2"}, "SARS-CoV2 WA-2020 strain [1]": {"test_system": "SARS-CoV2 WA-2020 strain", "format": "cell-based", "details": "Vero E6, 2000 cells/well, MOI 0.05, 72 hours"}, "SARS-CoV2 WA-2020 strain [2]": {"test_system": "SARS-CoV2 WA-2020 strain", "format": "cell-based", "details": "Vero E6, 40,000 cells/well, MOI 0.01, 72 hours"}, "SARS-CoV2 WA-2020 strain [3]": {"test_system": "SARS-CoV2 WA-2020 strain", "format": "cell-based", "details": "Vero E6, 40,000 cells/well, MOI 0.01, 72 hours supernatant"}, "Vero E6 cells": {"test_system": "Vero E6 cells", "details": "MTT assay, uninfected Vero E6 cells, same compound dilutions"}, "[4]": {"details": "Severe acute respiratory syndrome coronavirus 2, Vero C1008, 48 h"}},
  "note": "Read-outs that look alike come from different tables or passages of the source.",
  "data": [
    {"smiles": "CCC(CC)COC(=O)[C@H](C)N[P@](=O)(OC[C@H]1O[C@@](C#N)(c2ccc3c(N)ncnn23)[C@H](O)[C@@H]1O)Oc1ccccc1", "note": "[Remdesivir]", "values": [
      {"measurement": "IC50", "setting": "SARS-CoV-2; [4]", "value": 0.826, "unit": "µM"}
    ]},
    {"smiles": "CN1CCN(c2ccc(Nc3ncc4cc(C#N)c(=O)n(C5CCCC5)c4n3)cc2)CC1", "note": "[ON123300]", "values": [
      {"measurement": "effect on viral replication", "setting": "SARS-CoV-2; Vero E6 cells, negative control, data not shown", "value": "no effect on viral replication"}
    ]},
    {"smiles": "O=C1Nc2cc(S(=O)(=O)Cc3c(Cl)cccc3Cl)ccc2S/C1=C\\c1ccc(O)c([N+](=O)[O-])c1", "note": "[compound 108600]", "values": [
      {"measurement": "IC50", "setting": "SARS-CoV-2; Vero E6 cells, 2,000 cells/well, MOI 0.025, 48 h, percent infected cells (NP immunostain)", "value": 0.013, "unit": "µM"},
      {"measurement": "fold more effective/active than Remdesivir (IC50, SARS-CoV-2 replication)", "setting": "SARS-CoV-2; Vero E6 cells, relative to Remdesivir", "value": "approximately 63 fold"},
      {"measurement": "release of NP protein / virus from infected cells", "setting": "SARS-CoV2 WA-2020 strain [1]", "value": "inhibited SARS-CoV-2 infection of Vero cells in a dose dependent manner"},
      {"measurement": "release of NP protein from infected cells into the medium", "setting": "SARS-CoV2 WA-2020 strain [2]", "value": "inhibition was noted only with 10 µM concentration"},
      {"measurement": "infectious titer of released virus (plaque assay)", "setting": "SARS-CoV2 WA-2020 strain [3]", "value": "correlated to the infectious titers"},
      {"measurement": "effect on the viability of Vero E6 cells", "setting": "Vero E6 cells", "value": "little or no effect"}
    ]},
    {"smiles": "CCN(CCO)CCCC(C)Nc1ccnc2cc(Cl)ccc12", "note": "(stereo not drawn) [Hydroxy-Chloroquine]", "values": [
      {"measurement": "IC50", "setting": "SARS-CoV-2; [4]", "value": 0.733, "unit": "µM"}
    ]}
  ]
}
